Experiments:
[1] = system: winter wheat (Vershin variety); test: Winter wheat seed treatment with BHMPA salts: germination energy and germination rate; type: in vivo
Method in brief: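 Corn, winter wheat and rice seeds (50 per dish, on filter paper) were soaked for 1 h in BHMPA or its metal salts at 1·10^−6-1·10^−12%, with water as control. Germination energy was read on day 4 and germination rate on day 8 for wheat and day 7 for rice and corn, following GOST 12038-84, as the mean of four replicates.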

rice (Diamant variety) = test: Rice seed treatment with BHMPA salts: germinating power; type: in vivo
Method in brief: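 Seeds (50 per Petri dish on two layers of filter paper) soaked 1 h in BHMPA or its Ca, Mg, Na, Co, Mn, Cu or Zn salts at 1·10^−6-1·10^−12%, with water controls. Germination energy read on day 4, germination on day 8 (wheat) or day 7 (rice, corn), as % means of four replicates. Germinating power taken as root and sprout length plus wet and dry mass per 100 seedlings.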

[2] = winter wheat Vershin, 1·10^−6% solution
[3] = winter wheat Vershin, 1·10^−7% solution
[4] = winter wheat Vershin, 1·10^−8% solution
[5] = winter wheat Vershin, 1·10^−9% solution
[6] = winter wheat Vershin, 1·10^−10% solution
[7] = winter wheat Vershin, 1·10^−11% solution
[8] = winter wheat Vershin, 1·10^−12% solution
[9] = winter wheat, comparative study vs Melaphen, 1·10^−9% solution
[10] = rice seed treatment, comparison with Melaphen (Table XXXIII), solution 1 · 10^−9%
[11] = rice seeds, solution concentration 1 · 10^−6%
[12] = rice seeds, solution concentration 1 · 10^−7%
[13] = rice seeds, solution concentration 1 · 10^−8%
[14] = rice seeds, solution concentration 1 · 10^−9%
[15] = rice seeds, solution concentration 1 · 10^−10%
[16] = rice seeds, solution concentration 1 · 10^−11%
[17] = rice seeds, solution concentration 1 · 10^−12%
[18] = rice, vs control, 1·10^−9% solution

SMILES: O.O.O=P([O-])(CO)CO.O=P([O-])(CO)CO.[Mn+2] [Mn-salt, Manganese BHMPA Salt]
- Germination energy [1, 2]: 72.0%
- Germination rate [1, 2]: 69.3%
- Germination energy [1, 3]: 73.6%
- Germination rate [1, 3]: 76.0%
- Germination energy [1, 4]: 77.9%
- Germination rate [1, 4]: 82.7%
- Germination energy [1, 5]: 85.5%
- Germination rate [1, 5]: 88.7%
- Germination energy [1, 6]: 83.0%
- Germination rate [1, 6]: 85.3%
- Germination energy [1, 7]: 76.1%
- Germination rate [1, 7]: 78.8%
- Germination energy [1, 8]: 71.6%
- Germination rate [1, 8]: 74.0%
- Germination energy [1, 9]: 88.0%
- Germination rate [1, 9]: 93.7%
- optimum concentration for treating rice seeds before sowing (rice (Diamant variety); rice): 1·10^−9%
- Length, root (rice (Diamant variety); [10]): 6.8 cm
- Length, root, + % to control (rice (Diamant variety); [10]): 42%
- Length, sprout (rice (Diamant variety); [10]): 4.2 cm
- Length, sprout, + % to control (rice (Diamant variety); [10]): 35%
- Mass, dry, root (rice (Diamant variety); [10]): 0.24 g/100 plantlings
- Mass, dry, root, + % to control (rice (Diamant variety); [10]): 14%
- Mass, dry, sprout (rice (Diamant variety); [10]): 0.28 g/100 plantlings
- Mass, dry, sprout, + % to control (rice (Diamant variety); [10]): 12%
- Mass, wet, root (rice (Diamant variety); [10]): 1.34 g/100 plantlings
- Mass, wet, root, + % to control (rice (Diamant variety); [10]): 37%
- Mass, wet, sprout (rice (Diamant variety); [10]): 2.34 g/100 plantlings
- Mass, wet, sprout, + % to control (rice (Diamant variety); [10]): 55%
- Length, root (rice (Diamant variety); [11]): 6.2 cm
- Length, root, + % to control (rice (Diamant variety); [11]): 3%
- Length, sprout (rice (Diamant variety); [11]): 2.7 cm
- Length, sprout, + % to control (rice (Diamant variety); [11]): 8%
- Mass, dry, root (rice (Diamant variety); [11]): 0.22 g/100 plantlings
- Mass, dry, root, + % to control (rice (Diamant variety); [11]): 10%
- Mass, dry, sprout (rice (Diamant variety); [11]): 0.29 g/100 plantlings
- Mass, dry, sprout, + % to control (rice (Diamant variety); [11]): 11.5%
- Mass, wet, root (rice (Diamant variety); [11]): 1.13 g/100 plantlings
- Mass, wet, root, + % to control (rice (Diamant variety); [11]): 15%
- Mass, wet, sprout (rice (Diamant variety); [11]): 1.80 g/100 plantlings
- Mass, wet, sprout, + % to control (rice (Diamant variety); [11]): 5%
- Length, root (rice (Diamant variety); [12]): 6.4 cm
- Length, root, + % to control (rice (Diamant variety); [12]): 7%
- Length, sprout (rice (Diamant variety); [12]): 2.9 cm
- Length, sprout, + % to control (rice (Diamant variety); [12]): 16%
- Mass, dry, root (rice (Diamant variety); [12]): 0.25 g/100 plantlings
- Mass, dry, root, + % to control (rice (Diamant variety); [12]): 25%
- Mass, dry, sprout (rice (Diamant variety); [12]): 0.36 g/100 plantlings
- Mass, dry, sprout, + % to control (rice (Diamant variety); [12]): 38%
- Mass, wet, root (rice (Diamant variety); [12]): 1.21 g/100 plantlings
- Mass, wet, root, + % to control (rice (Diamant variety); [12]): 23%
- Mass, wet, sprout (rice (Diamant variety); [12]): 2.12 g/100 plantlings
- Mass, wet, sprout, + % to control (rice (Diamant variety); [12]): 23%
- Length, root (rice (Diamant variety); [13]): 6.5 cm
- Length, root, + % to control (rice (Diamant variety); [13]): 8%
- Length, sprout (rice (Diamant variety); [13]): 3.1 cm
- Length, sprout, + % to control (rice (Diamant variety); [13]): 24%
- Mass, dry, root (rice (Diamant variety); [13]): 0.28 g/100 plantlings
- Mass, dry, root, + % to control (rice (Diamant variety); [13]): 40%
- Mass, dry, sprout (rice (Diamant variety); [13]): 0.41 g/100 plantlings
- Mass, dry, sprout, + % to control (rice (Diamant variety); [13]): 58%
- Mass, wet, root (rice (Diamant variety); [13]): 1.30 g/100 plantlings
- Mass, wet, root, + % to control (rice (Diamant variety); [13]): 33%
- Mass, wet, sprout (rice (Diamant variety); [13]): 2.26 g/100 plantlings
- Mass, wet, sprout, + % to control (rice (Diamant variety); [13]): 31%
- Length, root (rice (Diamant variety); [14]): 6.8 cm
- Length, root, + % to control (rice (Diamant variety); [14]): 13%
- Length, sprout (rice (Diamant variety); [14]): 3.3 cm
- Length, sprout, + % to control (rice (Diamant variety); [14]): 32%
- Mass, dry, root (rice (Diamant variety); [14]): 0.32 g/100 plantlings
- Mass, dry, root, + % to control (rice (Diamant variety); [14]): 60%
- Mass, dry, sprout (rice (Diamant variety); [14]): 0.44 g/100 plantlings
- Mass, dry, sprout, + % to control (rice (Diamant variety); [14]): 69%
- Mass, wet, root (rice (Diamant variety); [14]): 1.44 g/100 plantlings
- Mass, wet, root, + % to control (rice (Diamant variety); [14]): 47%
- Mass, wet, sprout (rice (Diamant variety); [14]): 2.41 g/100 plantlings
- Mass, wet, sprout, + % to control (rice (Diamant variety); [14]): 40%
- Length, root (rice (Diamant variety); [15]): 6.7 cm
- Length, root, + % to control (rice (Diamant variety); [15]): 12%
- Length, sprout (rice (Diamant variety); [15]): 3.0 cm
- Length, sprout, + % to control (rice (Diamant variety); [15]): 12%
- Mass, dry, root (rice (Diamant variety); [15]): 0.26 g/100 plantlings
- Mass, dry, root, + % to control (rice (Diamant variety); [15]): 30%
- Mass, dry, sprout (rice (Diamant variety); [15]): 0.39 g/100 plantlings
- Mass, dry, sprout, + % to control (rice (Diamant variety); [15]): 50%
- Mass, wet, root (rice (Diamant variety); [15]): 1.33 g/100 plantlings
- Mass, wet, root, + % to control (rice (Diamant variety); [15]): 36%
- Mass, wet, sprout (rice (Diamant variety); [15]): 2.30 g/100 plantlings
- Mass, wet, sprout, + % to control (rice (Diamant variety); [15]): 34%
- Length, root (rice (Diamant variety); [16]): 6.5 cm
- Length, root, + % to control (rice (Diamant variety); [16]): 8%
- Length, sprout (rice (Diamant variety); [16]): 2.9 cm
- Length, sprout, + % to control (rice (Diamant variety); [16]): 16%
- Mass, dry, root (rice (Diamant variety); [16]): 0.23 g/100 plantlings
- Mass, dry, root, + % to control (rice (Diamant variety); [16]): 15%
- Mass, dry, sprout (rice (Diamant variety); [16]): 0.36 g/100 plantlings
- Mass, dry, sprout, + % to control (rice (Diamant variety); [16]): 38%
- Mass, wet, root (rice (Diamant variety); [16]): 1.29 g/100 plantlings
- Mass, wet, root, + % to control (rice (Diamant variety); [16]): 31%
- Mass, wet, sprout (rice (Diamant variety); [16]): 2.21 g/100 plantlings
- Mass, wet, sprout, + % to control (rice (Diamant variety); [16]): 28%
- Length, root (rice (Diamant variety); [17]): 6.3 cm
- Length, root, + % to control (rice (Diamant variety); [17]): 5%
- Length, sprout (rice (Diamant variety); [17]): 2.7 cm
- Length, sprout, + % to control (rice (Diamant variety); [17]): 8%
- Mass, dry, root (rice (Diamant variety); [17]): 0.20 g/100 plantlings
- Mass, dry, root, + % to control (rice (Diamant variety); [17]): 0%
- Mass, dry, sprout (rice (Diamant variety); [17]): 0.32 g/100 plantlings
- Mass, dry, sprout, + % to control (rice (Diamant variety); [17]): 23%
- Mass, wet, root (rice (Diamant variety); [17]): 1.27 g/100 plantlings
- Mass, wet, root, + % to control (rice (Diamant variety); [17]): 29%
- Mass, wet, sprout (rice (Diamant variety); [17]): 2.14 g/100 plantlings
- Mass, wet, sprout, + % to control (rice (Diamant variety); [17]): 24%
- dry mass of the roots increased by (rice (Diamant variety); [18]): 60%
- dry mass of the sprouts increased by (rice (Diamant variety); [18]): 69%
- length of the root increased by (rice (Diamant variety); [18]): 13%
- length of the sprout increased by (rice (Diamant variety); [18]): 32%
- wet mass of the roots increased by (rice (Diamant variety); [18]): 47%
- wet mass of the sprouts increased by (rice (Diamant variety); [18]): 40%
